Columns and labels:
[1] = biological target: GAPDH (Homo sapiens, UniProt P04406); conditions: covalent bond with active-site cysteine; cited from earlier work
[2] = biological target: T1, MCT1 (Homo sapiens, UniProt P53985); assay: 14C-3-BrPA uptake assay, wild type KBM7 cells; type: cell-based; conditions: wild type KBM7 in HBSS, up to 20 minutes, unlabeled competitor
T1 construct: endogenous in cells; host or cells: wild type KBM7 cells (near-haploid human cell line)
T1 sequence (P53985 1-500): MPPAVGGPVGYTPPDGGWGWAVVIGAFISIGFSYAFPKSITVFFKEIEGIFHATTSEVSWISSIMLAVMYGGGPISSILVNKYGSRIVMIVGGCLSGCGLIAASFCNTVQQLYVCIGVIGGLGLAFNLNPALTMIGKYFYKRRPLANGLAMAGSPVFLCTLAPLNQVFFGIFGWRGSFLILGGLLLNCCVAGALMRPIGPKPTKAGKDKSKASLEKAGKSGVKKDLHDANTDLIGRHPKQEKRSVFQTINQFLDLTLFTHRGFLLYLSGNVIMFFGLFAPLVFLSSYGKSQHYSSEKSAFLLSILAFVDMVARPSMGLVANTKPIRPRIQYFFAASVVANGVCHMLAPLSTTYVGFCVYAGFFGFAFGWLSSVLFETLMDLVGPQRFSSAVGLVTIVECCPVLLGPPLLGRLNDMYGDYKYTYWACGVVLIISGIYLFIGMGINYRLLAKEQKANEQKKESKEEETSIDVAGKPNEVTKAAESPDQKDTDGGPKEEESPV
T1 sequence (P35613 140-385 partner limits assumed): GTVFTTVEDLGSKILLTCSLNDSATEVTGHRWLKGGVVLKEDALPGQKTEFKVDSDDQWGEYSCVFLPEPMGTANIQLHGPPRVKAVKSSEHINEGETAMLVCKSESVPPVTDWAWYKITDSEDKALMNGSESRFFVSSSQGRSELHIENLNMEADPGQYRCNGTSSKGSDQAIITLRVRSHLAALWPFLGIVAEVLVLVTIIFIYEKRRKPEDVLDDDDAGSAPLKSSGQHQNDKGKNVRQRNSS
Experimental: Wild type KBM7 or MCT1-null cells were seeded in HBSS and exposed for up to 20 minutes to 100 μM ^14C-labeled 3-BrPA (6.8 mCi/mmole) (Moravek) with or without competitor molecules like 3-BrPA, Pyruvate, L-Lactate and D-Lactate. Cells were washed with cold HBSS, lysed in a NaOH buffer, and uptake measured using a liquid scintillation counter.

[3] = system: MCT1; conditions: cited from earlier work

GAPDH, sequence (P04406 whole entry, species assumed): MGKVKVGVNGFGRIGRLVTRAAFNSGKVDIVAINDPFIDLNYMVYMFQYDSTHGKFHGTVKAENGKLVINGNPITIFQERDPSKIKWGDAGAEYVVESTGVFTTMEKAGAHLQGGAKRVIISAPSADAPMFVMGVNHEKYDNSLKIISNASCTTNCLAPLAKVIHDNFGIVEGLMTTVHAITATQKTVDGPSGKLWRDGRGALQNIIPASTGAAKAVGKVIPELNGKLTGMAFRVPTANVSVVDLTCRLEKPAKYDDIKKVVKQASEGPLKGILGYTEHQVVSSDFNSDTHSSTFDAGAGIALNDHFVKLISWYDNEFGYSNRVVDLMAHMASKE

Compound: CC1=C[C@@]23C(COC(=O)C24CO4)C(C(=O)O)=CC3[C@@H]1C (some centres unmarked) [Pentalenolactone]
- inhibition of GAPDH [1]: potently inhibit

Compound: CC(C)C1CC[C@@]2(CO2)[C@H]2C(=O)OCC(C(=O)O)=C[C@H]12 (some centres unmarked) [koningic acid]
- inhibition of GAPDH [1]: potently inhibit

Compound: CC(O)C(=O)O (centres unmarked) [lactate]
- competition with the uptake of radiolabeled 3-BrPA [2]: to a lesser extent

Compound: N#C/C(=C\c1ccc(O)cc1)C(=O)O [α-cyano-4-hydroxycinnamate (CHC), α-cyano-4-hydroxycinnamate]
- antitumor effect ([3]; alone or in combination with radiotherapy in mice): potent antitumor affects
- toxicity ([3]; mice): without exerting overt toxicity

Reference: patent publication US20140142180A1, “METHODS OF TREATING TUMORS HAVING ELEVATED MCT1 EXPRESSION” (Whitehead Institute for Biomedical Research, priority 2012, published 2014)
